According to patent US20140065241A1, “USES OF (-)-PERHEXILINE” (Adelaide Research & Innovation Pty Ltd, priority 2012, published 2014):

How the values were obtained:
[1] = system: rat isoprenaline model of heart failure; experiment: Plasma troponin T in rat isoprenaline model of heart failure; format: in vivo; details: DA rats; 2 weeks pre-treatment 200 mg/kg/day; isoprenaline 50 mg/kg i.p.; plasma 3 hr after
Experimental: The effect of racemic perhexyline, (+)-perhexyline and (−)-perhexyline on myocardial damage in a rat isoprenaline model of heart failure, using Troponin T as an indirect measure of myocardial damage was investigated. The use of a rat isoprenaline model of heart failure is as described in Teerlink, J R et al. (1994) “Progressive ventricular remodeling in response to diffuse isoproterenol-induced myocardial necrosis in rats” Circ Res, 75: 105-13.
DA rats were treated for 2 weeks with vehicle or 200 mg/kg/day of racemic, (+)- or (−)-perhexyline maleate, on day 15 myocardial necrosis was induced by i.p. injection of 50 mg/kg isoprenaline, with a second group of controls receiving an i.p. injection of saline (n=5). Cardiac troponin T levels were measured in plasma collected 3 hr following treatment by venipuncture of the tail vein.

Dark Agouti (DA) rats = experiment: Histological (electron microscopy) assessment of hepatic lipid and glycogen content after 8 weeks of dosing; format: in vivo, rat; details: for hepatic glycogen content / hepatic lipid content: 200 mg/kg daily for 8 weeks, vs vehicle, 200 mg/kg
Experimental: Adult female Dark Agouti (DA) rats (n=4 in each group) were administered 200 mg/kg daily of vehicle, racemic-, (+) or (−)-perhexyline maleate for a period of 2 months. The perhexyline maleate compound was administered mixed with peanut paste and coated onto standard rat chow. On day 56 of dosing, animals were anesthetized and blood was collected via a cardiac puncture in order to determine the concentrations of perhexyline enantiomers. Animals were then euthanized and hepatic, cardiac and neuronal tissues were harvested in order to determine perhexyline enantiomer and metabolite tissue concentrations and morphological changes. Tissues were cut in half and either immediately snap frozen in liquid nitrogen or placed into fixative solution for electron microscopy analysis. Tissue was dissected into cubes of approximately 0.5 mm in each dimension and was fixed for one hour in electron microscopy (EM) fixative (4% formaldehyde and 1.5% glutaraldehyde in sodium cacodylate buffer, pH 7.2). The fixed tissue was post-fixed in 2% osmium tetroxide in sodium cacodylate buffer, en bloc stained with 2% uranyl acetate and dehydrated through 70%, 90% and 100% ethanol. Then, the tissue was processed through 1,2-epoxypropane, a 50/50 mixture of 1,2-epoxypropane and Procure 812 resin (Electron Microscopy Sciences, Fort Washington, USA) and two changes of 100% resin. Tissue and resin were transferred to Beem capsules and placed in an oven overnight at 90° C. Survey sections of tissue blocks were cut with glass knives and stained with Toluidine Blue. Thin sections were cut at approximately 100 nm thickness on a Porter-Blum ultramicrotome (Sorvall, Newtown, USA) using a diamond knife (Micro Star Technologies, Huntsville, USA). Thin sections were stained with Reynolds' lead citrate and examined in a Hitachi H-600 transmission electron microscope (Tokyo, Japan 1983). Glycogen and lipids were identified and total content was measured as a percentage of the field of view.

[2] = Perhexyline enantiomer concentrations in plasma, liver and heart; format: in vivo, rat; details: DA rats; for plasma concentration: pure enantiomer 200 mg/kg daily for 8 weeks
Experimental: Adult female Dark Agouti (DA) rats (n=4 in each group) were administered 200 mg/kg daily of vehicle, racemic-, (+) or (−)-perhexyline maleate for a period of 2 months. The perhexyline maleate compound was administered mixed with peanut paste and coated onto standard rat chow. On day 56 of dosing, animals were anesthetized and blood was collected via a cardiac puncture in order to determine the concentrations of perhexyline enantiomers. Animals were then euthanized and hepatic, cardiac and neuronal tissues were harvested in order to determine perhexyline enantiomer and metabolite tissue concentrations and morphological changes. Tissues were cut in half and either immediately snap frozen in liquid nitrogen or placed into fixative solution for electron microscopy analysis.
Plasma, liver and hear concentrations were measured in Dark Agouti rats treated for 8 weeks with 200 mg/kg/day of (+)-, (−)- or racemic-perhexyline (animals as described in Example 2) using the method of Davies et al., Journal of Chromatography B, 832 (2006) 114-120.
The data are shown in FIGS. 6A and 6B with concentrations adjusted to the equivalent of a 100 mg/kg enantiomeric dose.

Dark Agouti rats = experiment: Peripheral neural function by von Frey filament testing (paw withdrawal threshold); format: in vivo, rat; details: DA rats treated for 8 weeks, vs vehicle
Experimental: At 56 days, neuronal function was measured prior to euthanasia using von Frey filament testing. The thickness of each filament corresponds to a specific amount of pressure (in grams). Each animal was placed in a specifically designed plastic container, with the bottom replaced by mesh flooring. The animal was left for 10-15 minutes to settle into its new environment. In ascending order, von Frey filaments were applied from beneath the mesh flooring to the plantar surface of the paw until the filament buckled and was held there for a total of 10 seconds. A positive response was noted if the paw was withdrawn within the 10-second period. If a filament induced 6 positive responses, the grams corresponding to that filament were recorded as the paw withdrawal threshold.
To test the effect of each enantiomer on peripheral neural function, a Von Frey hairs model was used.

human neutrophil NOX2 = molecular target: T1, human neutrophil NOX2 (Homo sapiens, UniProt P04839); experiment: Inhibition of ex vivo superoxide formation by NOX2 in human neutrophils; format: cell-based; details: neutrophils from 11 healthy young volunteers
T1 construct: Using neutrophils from 11 healthy young volunteers; endogenous in cells; host or cells: human neutrophils from healthy volunteers
T1 sequence (P04839 2-570 limits assumed): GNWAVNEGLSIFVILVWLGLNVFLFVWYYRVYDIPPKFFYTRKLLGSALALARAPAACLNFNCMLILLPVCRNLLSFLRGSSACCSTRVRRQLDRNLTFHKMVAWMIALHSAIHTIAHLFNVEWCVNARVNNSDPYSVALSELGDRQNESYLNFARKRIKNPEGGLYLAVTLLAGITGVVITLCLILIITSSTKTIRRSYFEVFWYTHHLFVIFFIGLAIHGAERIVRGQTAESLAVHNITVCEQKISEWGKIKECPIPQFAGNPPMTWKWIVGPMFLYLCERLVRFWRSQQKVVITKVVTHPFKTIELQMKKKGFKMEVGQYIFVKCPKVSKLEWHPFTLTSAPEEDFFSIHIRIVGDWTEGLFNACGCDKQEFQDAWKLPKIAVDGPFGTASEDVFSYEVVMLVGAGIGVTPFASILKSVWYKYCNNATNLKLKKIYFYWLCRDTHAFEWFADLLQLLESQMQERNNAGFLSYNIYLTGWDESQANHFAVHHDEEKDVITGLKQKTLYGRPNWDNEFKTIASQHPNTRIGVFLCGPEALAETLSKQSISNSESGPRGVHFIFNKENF
T1 sequence (P13498 2-195 partner limits assumed): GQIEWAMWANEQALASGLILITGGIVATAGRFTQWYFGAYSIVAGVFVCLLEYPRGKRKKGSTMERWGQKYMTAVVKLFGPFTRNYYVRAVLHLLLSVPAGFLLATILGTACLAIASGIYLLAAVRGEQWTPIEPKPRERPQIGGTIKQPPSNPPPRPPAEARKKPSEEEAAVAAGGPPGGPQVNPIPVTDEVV
Excerpt: As an index of anti-inflammatory and nitric oxide-sparing potential, the relative potency of the enantiomers as inhibitors of ex vivo superoxide formation by NOX2 was investigated in human neutrophils.
Whilst this enantioselectivity is consistent with different therapeutic indices for the enantiomers, it can be seen that both still contribute to perhexyline's anti-inflammatory effects.

rat isoprenaline model = experiment: Histological assessment of isoprenaline-induced myocardial injury; format: in vivo; details: DA rats; 2 weeks pre-treatment 200 mg/kg/day; isoprenaline 50 mg/kg
Experimental: DA rats were treated for 2 weeks with vehicle or 200 mg/kg/day of racemic, (+)- or (−)-perhexyline maleate, on day 15 myocardial necrosis was induced by i.p. injection of 50 mg/kg isoprenaline, with a second group of controls receiving an i.p. injection of saline (n=5). Cardiac troponin T levels were measured in plasma collected 3 hr following treatment by venipuncture of the tail vein. […] The severity and extent of myocardial injury were assessed by a pathologist who was blinded to the treatment, and classified as: 0—no change; 1—mild (single mild focus of myocyte damage or multiple small foci with mild inflammatory cell infiltrate); 2—moderate (multiple larger foci of myocyte damage with moderate inflammatory cell infiltrate) and 3—severe (multiple larger foci of myocyte damage with severe inflammatory cell infiltrate or broad zone of necrosis with extensive inflammation). Results were analysed by dividing animals into two response groups 0-1: no or mild >1: moderate to severe.

TXNIP = experiment: Myocardial TXNIP staining (immunohistochemistry) after isoprenaline; format: in vivo, rat; details: DA rats; 2 weeks pre-treatment 200 mg/kg/day; isoprenaline 50 mg/kg
Excerpt: CONT; *=P<0.05 c.f. ISO; ̂=P=0.05 c.f. ISO. […] T×NIP is a regulatory protein which couples substrate utilization and redox state. Increased expression of T×NIP is associated with increased oxidative stress, decreased insulin secretion, decreased glucose uptake and suppression of PPARα (a major nuclear transcription factor regulating lipid metabolism). Thus, both (−)-perhexyline and (+)-perhexyline may also exert cardioprotection via inhibition of T×NIP.

[3] = system: pyruvate dehydrogenase (PDH); experiment: Total and phosphorylated pyruvate dehydrogenase in heart tissue by Western blots; format: in vivo; details: DA rat heart; 2 weeks 200 mg/kg/day; isoprenaline 50 mg/kg
Experimental: DA rats were treated for 2 weeks with vehicle or 200 mg/kg/day of racemic, (+)- or (−)-perhexyline maleate, on day 15 myocardial necrosis was induced by i.p. injection of 50 mg/kg isoprenaline (HCl salt), with a second group of controls receiving an i.p. injection of saline (n=5-8). Total and phosphorylated pyruvate dehydrogenase in heart tissue was measured by Western blots.

[4] = clinical use of racemic drug; cited from earlier work
[5] = 8 weeks 200 mg/kg/day, dose-adjusted

C1CCC(C(CC2CCCCN2)C2CCCCC2)CC1 (single isomer, unassigned; (-)) [(−)-perhexyline, (−)-enantiomer of perhexyline]
effect on isoprenaline-induced rise in plasma troponin T [1]: exacerbated
hepatic glycogen content (Dark Agouti (DA) rats): significantly increased
hepatic lipid content (Dark Agouti (DA) rats): no effect
tissue distribution, pure enantiomer vs as part of the racemic formulation [2, 5]: similar
plasma concentration [2]: 220 to 390 ng/mL
neural sensory function (Von Frey hairs) (Dark Agouti rats): did not
EC50 (human neutrophil NOX2): 1300 nM
isoprenaline-induced myocardial damage (histological score) (rat isoprenaline model): attenuated
isoprenaline-induced increase in myocardial TXNIP staining (TXNIP): attenuated
PDH deactivation (measured as phosphorylated PDH) [3]: extremely potent inhibitor
inhibition of PDH deactivation compared with (+)-perhexyline [3]: more potent
total PDH expression [3]: did not affect

C1CCC(C(CC2CCCCN2)C2CCCCC2)CC1 (racemic) [racemic perhexyline, 2-(2,2-dicyclohexylethyl) piperidine]
effect on isoprenaline-induced rise in plasma troponin T [1]: not affected
plasma concentration at which severe adverse effects (hepatotoxicity, peripheral neuropathy) are typically seen [4]: greater than 0.6 mg/L
recipients with adverse effects [4]: more than 60%

C1CCC(C(CC2CCCCN2)C2CCCCC2)CC1 (single isomer, unassigned; (+)) [(+)-perhexyline, (+)-enantiomer of perhexyline]
effect on isoprenaline-induced rise in plasma troponin T [1]: not affected
hepatic glycogen content (Dark Agouti (DA) rats): appeared to decrease
hepatic lipid content (Dark Agouti (DA) rats): significantly increased
hepatic steatosis (Dark Agouti (DA) rats; 8 weeks, plasma concentrations similar to those causing hepatotoxicity in humans): causes hepatic steatosis
distribution into liver, pure enantiomer compared to the racemic formulation [2, 5]: significantly increased
plasma concentration [2]: 520 to 800 ng/mL
neural sensory function (Von Frey hairs) (Dark Agouti rats): significant decline
EC50 (human neutrophil NOX2): 1800 nM
isoprenaline-induced myocardial damage (histological score) (rat isoprenaline model): only partially attenuated
isoprenaline-induced increase in myocardial TXNIP staining (TXNIP): attenuated
